The source of these data is patent US10689377B2 (Mirati Therapeutics, Inc., priority 2017, dated 2020).

Molecules are shown by their SMILES. A value given as a limit tells only on which side of the number the result lay.

KRas G12C, sequence (P01116 1-188 isoform P01116-2 G12C): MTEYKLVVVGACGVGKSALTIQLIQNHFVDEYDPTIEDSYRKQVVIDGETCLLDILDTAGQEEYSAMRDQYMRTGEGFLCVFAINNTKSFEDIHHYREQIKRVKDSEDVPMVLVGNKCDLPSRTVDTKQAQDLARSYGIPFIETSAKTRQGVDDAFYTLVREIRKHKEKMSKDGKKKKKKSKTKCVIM

The target in the experiment is KRas G12C (Homo sapiens, UniProt P01116, G12C). The experiment can be described thus: Cellular inhibition of KRas G12C measured by Phospho-ERK in NCI-H358 cells. It counts as cell-based. The conditions noted are these: pERK(Thr202/Tyr204) normalized with GAPDH, NCI-H358 cells, 3 hours; read-out: IC50. A digest of the protocol:
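Following 8-12 h attachment, NCI-H358 cells got serially diluted compound (0.5% DMSO) for 3 hours. Cells were then fixed, permeabilized with cold methanol, and stained for pERK(Thr202/Tyr204) and GAPDH. Ratios were converted to percent of DMSO control, with IC50 obtained by four-parameter regression.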
For orientation: IC50 means the point on the concentration scale where inhibition reaches its midpoint. On to `CN1CCC[C@H]1COc1nc2c(c(N3CCN(C(=O)C#CCO)[C@@H](CC#N)C3)n1)CCN(c1cccc3ccccc13)C2` [Example 474, 2-((S)-1-(4-hydroxybut-2-ynoyl)-4-(2-(((S)-1-methylpyrrolidin-2-yl)methoxy)-7-(naphthalen-1-yl)-5,6,7,8-tetrahydropyrido[3,4-d]pyrimidin-4-yl)piperazin-2-yl)acetonitrile], for which the IC50 lay in the range of 0.1 to 1000 nM. The result for `C=CC(=O)N1CCN(c2nc(OCC(O)CO)nc3c2CCN(c2cc(O)cc4ccccc24)C3)CC1` (stereo not shown) [Example 143, 1-[4-[2-(2,3-dihydroxypropoxy)-7-(3-hydroxy-1-naphthyl)-6,8-dihydro-5H-pyrido[3,4-d]pyrimidin-4-yl]piperazin-1-yl]prop-2-en-1-one] reads above 1000 nM; that for `C=CC(=O)N1CCN(c2nc(OC[C@@H]3CCCN3C)nc3c2CCN(c2cccc(Cl)c2Cl)C3)C[C@@H]1CC#N` [Example 421, 2-((S)-1-acryloyl-4-(7-(2,3-dichlorophenyl)-2-(((S)-1-methylpyrrolidin-2-yl)methoxy)-5,6,7,8-tetrahydropyrido[3,4-d]pyrimidin-4-yl)piperazin-2-yl)acetonitrile], 0.1 to 1000 nM; that for `C=CC(=O)N1CCN(c2nc(OC[C@@H]3[C@@H](O)CCN3C)nc3c2CCN(c2cccc4ccccc24)C3)C[C@@H]1CC#N` [Example 390, 2-((S)-1-acryloyl-4-(2-(((2R,3S)-3-hydroxy-1-methylpyrrolidin-2-yl)methoxy)-7-(naphthalen-1-yl)-5,6,7,8-tetrahydropyrido[3,4-d]pyrimidin-4-yl)piperazin-2-yl)acetonitrile], 0.1 to 1000 nM.

On to `C=CC(=O)N1C[C@@H](C)N(c2nc(OC[C@@H]3CCCN3C)nc3c2CCN(c2cccc4ccccc24)C3)C[C@@H]1CC#N` [Example 378, 2-((2S,5R)-1-acryloyl-5-methyl-4-(2-(((S)-1-methylpyrrolidin-2-yl)methoxy)-7-(naphthalen-1-yl)-5,6,7,8-tetrahydropyrido[3,4-d]pyrimidin-4-yl)piperazin-2-yl)acetonitrile], for which the IC50 is 0.1 to 1000 nM. The result for `C=CC(=O)N1CCN(c2ncnc3c2CCN(c2cncc4ccccc24)C3)CC1` [Example 69, 1-(4-(7-(isoquinolin-4-yl)-5,6,7,8-tetrahydropyrido[3,4-d]pyrimidin-4-yl)piperazin-1-yl)prop-2-en-1-one] reads above 1000 nM. On to `C=C(F)C(=O)N1CCN(c2ncnc3c2CCN(c2cccc4cccc(C)c24)C3)C[C@@H]1CC#N` [Example 611, (S)-2-(1-(2-fluoroacryloyl)-4-(7-(8-methylnaphthalen-1-yl)-5,6,7,8-tetrahydropyrido[3,4-d]pyrimidin-4-yl)piperazin-2-yl)acetonitrile], for which the IC50 is above 1000 nM. As to `C=CC(=O)N1CCN(c2nc(OCC3CCN(C4CCCCC4)C3)nc3c2CCN(c2cc(O)cc4ccccc24)C3)CC1` (stereo not shown) [Example 132, 1-[4-[2-[(1-cyclohexylpyrrolidin-3-yl)methoxy]-7-(3-hydroxy-1-naphthyl)-6,8-dihydro-5H-pyrido[3,4-d]pyrimidin-4-yl]piperazin-1-yl]prop-2-en-1-one], the 50% inhibitory concentration (IC50) was 0.1 to 1000 nM. For `C=CC(=O)N1CCN(c2nc(OC[C@H](O)CN3CCOCC3)nc3c2CCN(c2cc(O)cc4ccccc24)C3)CC1` (single isomer, unassigned) [Example 215], the IC50 was above 1000 nM.

In the case of `C=CC(=O)N1CCN(c2nc(OC[C@@H]3COCCN3C)nc3c2CCN(c2cccc4ccccc24)C3)CC1CC#N` (stereo partly drawn) [Example 445, 2-(1-Acryloyl-4-(2-(((S)-4-methylmorpholin-3-yl)methoxy)-7-(naphthalen-1-yl)-5,6,7,8-tetrahydropyrido[3,4-d]pyrimidin-4-yl)piperazin-2-yl)acetonitrile], the IC50 lay in the range of 0.1 to 1000 nM. With `C=CC(=O)N1CCN(c2nc(OCCN(CC)CC)nc3c2CCN(c2ccccc2C(F)(F)F)C3)CC1CC#N` (stereo not shown) [Example 284, 2-(1-acryloyl-4-(2-(2-(diethylamino)ethoxy)-7-(2-(trifluoromethyl)phenyl)-5,6,7,8-tetrahydropyrido[3,4-d]pyrimidin-4-yl)piperazin-2-yl)acetonitrile], the IC50 lay in the range of 0.1 to 1000 nM. As for `C=CC(=O)N1CCN(c2nc(OC[C@@H]3CCCN3C)nc3c2CCN(c2cccc(F)c2Cl)C3)C[C@@H]1CC#N` [Example 406, 2-((S)-1-acryloyl-4-(7-(2-chloro-3-fluorophenyl)-2-(((S)-1-methylpyrrolidin-2-yl)methoxy)-5,6,7,8-tetrahydropyrido[3,4-d]pyrimidin-4-yl)piperazin-2-yl)acetonitrile], the IC50 fell in the range of 0.1 to 1000 nM.

Take `C=CC(=O)N1CCN(c2nc(OC[C@@H]3CCCN3C)nc3c2CCN(c2ccncc2C)C3)C[C@@H]1CC#N` [Example 345, 2-[(2S)-4-[7-(3-methyl-4-pyridyl)-2-[[(2S)-1-methylpyrrolidin-2-yl]methoxy]-6,8-dihydro-5H-pyrido[3,4-d]pyrimidin-4-yl]-1-prop-2-enoyl-piperazin-2-yl]acetonitrile]: the IC50 is above 1000 nM.

Regarding `C=CC(=O)N1C[C@H](C)N(c2nc(OC[C@@H]3CCCN3C)nc3c2CCN(c2cc(O)cc4ccccc24)C3)C[C@H]1C` [Example 336, 1-[(2R,5S)-4-[7-(3-hydroxy-1-naphthyl)-2-[[(2S)-1-methylpyrrolidin-2-yl]methoxy]-6,8-dihydro-5H-pyrido[3,4-d]pyrimidin-4-yl]-2,5-dimethyl-piperazin-1-yl]prop-2-en-1-one], the IC50 fell in the range of 0.1 to 1000 nM. The figure for `C=CC(=O)N1CCN(c2nc(OC[C@@H]3C[C@H](O)CN3C)nc3c2CCN(c2cccc4ccccc24)C3)CC1CC#N` (stereo partly drawn) [Example 419, 2-(1-acryloyl-4-(2-(((2S,4S)-4-hydroxy-1-methylpyrrolidin-2-yl)methoxy)-7-(naphthalen-1-yl)-5,6,7,8-tetrahydropyrido[3,4-d]pyrimidin-4-yl)piperazin-2-yl)acetonitrile] is 0.1 to 1000 nM; for `C=CC(=O)N1CCN(c2nc(OCCN3CCCCC3)nc3c2CCN(c2cccc4ccccc24)C3)C[C@@H]1CC#N` [Example 409, (S)-2-(1-acryloyl-4-(7-(naphthalen-1-yl)-2-(2-(piperidin-1-yl)ethoxy)-5,6,7,8-tetrahydropyrido[3,4-d]pyrimidin-4-yl)piperazin-2-yl)acetonitrile] it is 0.1 to 1000 nM; for `C=CC(=O)N1CCN(c2nc(OCCN(C)C)nc3c2CCN(c2cc(O)cc4ccccc24)C3)C[C@@H]1C` [Example 14] it is above 1000 nM. With `C=CC(=O)N1CCN(c2nc(OC[C@@H]3CCCCN3C)nc3c2CCN(c2cccc4ccccc24)C3)C[C@@H]1CC#N` [Example 377, 2-((S)-1-acryloyl-4-(2-(((S)-1-methylpiperidin-2-yl)methoxy)-7-(naphthalen-1-yl)-5,6,7,8-tetrahydropyrido[3,4-d]pyrimidin-4-yl)piperazin-2-yl)acetonitrile], the IC50 lay in the range of 0.1 to 1000 nM.

As for `C=CC(=O)N1CCN(c2nc(OCCN(C)C)nc3c2CCN(c2cc(O)cc4ccccc24)C3)C(CO)C1` (stereo not shown) [Example 53, 1-(4-(2-(2-(dimethylamino)ethoxy)-7-(3-hydroxynaphthalen-1-yl)-5,6,7,8-tetrahydropyrido[3,4-d]pyrimidin-4-yl)-3-(hydroxymethyl)piperazin-1-yl)prop-2-en-1-one], the concentration for half-maximal inhibition (IC50) was above 1000 nM.

Consider `C=CC(=O)N1CCN(c2nc(OC[C@@H]3CCCN3C)nc3c2CCN(c2cccc(OC)c2C)C3)C[C@@H]1CC#N` [Example 324, 2-[(2S)-4-[7-(3-methoxy-2-methyl-phenyl)-2-[[(2S)-1-methylpyrrolidin-2-yl]methoxy]-6,8-dihydro-5H-pyrido[3,4-d]pyrimidin-4-yl]-1-prop-2-enoyl-piperazin-2-yl]acetonitrile], for which the IC50 lay within 0.1 to 1000 nM. Take `C=CC(=O)N1CCN(c2nc(OC[C@@H]3CCCN3CCO)nc3c2CCN(c2cccc4ccccc24)C3)C[C@@H]1CC#N` [Example 341, 2-((S)-1-acryloyl-4-(2-(((S)-1-(2-hydroxyethyl)pyrrolidin-2-yl)methoxy)-7-(naphthalen-1-yl)-5,6,7,8-tetrahydropyrido[3,4-d]pyrimidin-4-yl)piperazin-2-yl)acetonitrile]: the IC50 is 0.1 to 1000 nM.

Regarding `CN(C)C/C=C/C(=O)N1CCN(c2nc(OC[C@@H]3C[C@@H](O)CN3C)nc3c2CCN(c2cccc(F)c2C(F)(F)F)C3)C[C@@H]1CC#N` [Example 342, 2-[(2S)-1-[(E)-4-(dimethylamino)but-2-enoyl]-4-[7-[3-fluoro-2-(trifluoromethyl)phenyl]-2-[[(2S,4R)-4-hydroxy-1-methyl-pyrrolidin-2-yl]methoxy]-6,8-dihydro-5H-pyrido[3,4-d]pyrimidin-4-yl]piperazin-2-yl]acetonitrile], the IC50 was in the range of 0.1 to 1000 nM. For `C=CC(=O)N1CCN(c2nc(OC[C@@H]3C[C@@H](O)CN3C)nc3c2CCN(c2cccc4ccccc24)C3)CC1CC#N` (stereo partly drawn) [Example 218, 2-(1-acryloyl-4-(2-(((2S,4R)-4-hydroxy-1-methylpyrrolidin-2-yl)methoxy)-7-(naphthalen-1-yl)-5,6,7,8-tetrahydropyrido[3,4-d]pyrimidin-4-yl)piperazin-2-yl)acetonitrile], the IC50 lay in the range of 0.1 to 1000 nM. For `C=CC(=O)N1CCN(c2nc(OCCN(C)C)nc3c2CCN(c2cc(O)cc4ccccc24)C3C)CC1` (stereo not shown) [Example 47, 1-(4-(2-(2-(dimethylamino)ethoxy)-7-(3-hydroxynaphthalen-1-yl)-8-methyl-5,6,7,8-tetrahydropyrido[3,4-d]pyrimidin-4-yl)piperazin-1-yl)prop-2-en-1-one], the IC50 was above 1000 nM. The result for `C=CC(=O)N1CCN(c2nc(OC[C@H]3COCCN3C)nc3c2CCN(c2cccc4ccccc24)C3)CC1CC#N` (stereo partly drawn) [Example 446, 2-(1-Acryloyl-4-(2-(((R)-4-methylmorpholin-3-yl)methoxy)-7-(naphthalen-1-yl)-5,6,7,8-tetrahydropyrido[3,4-d]pyrimidin-4-yl)piperazin-2-yl)acetonitrile] reads above 1000 nM.
